Source: patent US20240199605A1, “SMALL MOLECULAR INHIBITORS OF NF-kB INDUCING KINASE” (Janssen Pharmaceutica NV, priority 2019, published 2024)
Like-named read-outs stand apart in the source and are kept apart here.

Tests used:
[1] = tested on: p-IKKα levels in L363 (NIK translocated multiple myeloma) cells; test: Effect of compounds on p-IKKα levels in L363 cells (AlphaLISA SureFire Ultra); assay type: cell-based, human; conditions: BAFF stimulated, MG132, 6 h, average of values, read-out: Assay 2 IC50
Method: Effect of Compounds on p-IKKα Levels in L363 (NIK Translocated Multiple Myeloma) Cells
All compounds tested were dissolved and serially diluted in DMSO, 1:3 dilution for 11 points in an Echo compatible plate. 100% DMSO was added to columns 12 and 24 of the plate to serve as high and low signal controls. This compound plate was used to spot 20 nL of compound or DMSO into a Greiner 384 well TC plate (781080). The final DMSO concentration was 0.3% (v/v) in cell assays. Human L363 cells (ATCC) were cultured in RPM11640 medium supplemented with GlutaMax, non-essential amino acids, sodium pyruvate and 10% fetal bovine serum. Cells were routinely maintained at densities of […] at 37° C. in a humidified 5% CO2 atmosphere incubator. Cells were passaged twice a week splitting back to obtain the low density. The day before the assay, cells were washed twice in HBSS (Hank's Balanced Salt Solution), resuspended in Dulbecco's Modified Eagle Medium (DMEM)+0.5% IgG and protease free BSA (Jackson Immuno Research Laboratories), +/−250 ng/ml recombinant human B-cell activating factor (BAFF/BLyS/TNFSF13B) and incubated overnight at 37° C. in a humidified 5% CO2 atmosphere (bulk stimulation with or without BAFF). The next day, the cell concentration was adjusted to 1×10^7 cells/ml in DMEM+/−250 ng/ml BAFF+/−10 μM MG132 and plated at 10 μl/well into compound or DMSO spotted 384 well TC plates. Seeded cells were incubated at 37° C. in a humidified 5% CO2 atmosphere for 6 h. After 6 h, the plates were removed from the incubator and cell lysis was achieved by the addition of 2.5 μl 5× lysis buffer containing protease and phosphatase inhibitors, followed by shaking on a plate shaker at room temperature for 15 min. At the end of this incubation, lysed cells were sequentially treated and incubated with acceptor and donor bead mixes according to the manufacturer's protocol for a 1 plate/2-incubation suspension cell assay (AlphaLISA SureFire Ultra p-IKKa (Ser 176/180) Assay Kit (Perkin Elmer). Plates were read using an EnVision® Multilabel Plate Reader (Perkin Elmer). Within an experiment, a concentration response curve for each compound was run in duplicate. The signal obtained in the test wells was normalized using high signal (BAFF stimulated cells, DMSO, MG132) and low signal (unstimulated cells, DMSO) controls. To determine the IC50, a sigmoidal curve was fitted to the plot of % inhibition versus Log10 compound concentration.

[2] = molecular target: recombinant human NF-kappaB-inducing kinase (NIK/MAP3K14) (Homo sapiens (Human), UniProt Q99558); test: Inhibition of auto-phosphorylation of recombinant human NIK/MAP3K14 (AlphaScreen); assay type: biochemical; conditions: NIK auto-phosphorylation, 5 μM ATP, 1 nM NIK, 2 h at 25° C.; average of values
Sequence of recombinant human NF-kappaB-inducing kinase (NIK/MAP3K14) (Q99558 whole entry): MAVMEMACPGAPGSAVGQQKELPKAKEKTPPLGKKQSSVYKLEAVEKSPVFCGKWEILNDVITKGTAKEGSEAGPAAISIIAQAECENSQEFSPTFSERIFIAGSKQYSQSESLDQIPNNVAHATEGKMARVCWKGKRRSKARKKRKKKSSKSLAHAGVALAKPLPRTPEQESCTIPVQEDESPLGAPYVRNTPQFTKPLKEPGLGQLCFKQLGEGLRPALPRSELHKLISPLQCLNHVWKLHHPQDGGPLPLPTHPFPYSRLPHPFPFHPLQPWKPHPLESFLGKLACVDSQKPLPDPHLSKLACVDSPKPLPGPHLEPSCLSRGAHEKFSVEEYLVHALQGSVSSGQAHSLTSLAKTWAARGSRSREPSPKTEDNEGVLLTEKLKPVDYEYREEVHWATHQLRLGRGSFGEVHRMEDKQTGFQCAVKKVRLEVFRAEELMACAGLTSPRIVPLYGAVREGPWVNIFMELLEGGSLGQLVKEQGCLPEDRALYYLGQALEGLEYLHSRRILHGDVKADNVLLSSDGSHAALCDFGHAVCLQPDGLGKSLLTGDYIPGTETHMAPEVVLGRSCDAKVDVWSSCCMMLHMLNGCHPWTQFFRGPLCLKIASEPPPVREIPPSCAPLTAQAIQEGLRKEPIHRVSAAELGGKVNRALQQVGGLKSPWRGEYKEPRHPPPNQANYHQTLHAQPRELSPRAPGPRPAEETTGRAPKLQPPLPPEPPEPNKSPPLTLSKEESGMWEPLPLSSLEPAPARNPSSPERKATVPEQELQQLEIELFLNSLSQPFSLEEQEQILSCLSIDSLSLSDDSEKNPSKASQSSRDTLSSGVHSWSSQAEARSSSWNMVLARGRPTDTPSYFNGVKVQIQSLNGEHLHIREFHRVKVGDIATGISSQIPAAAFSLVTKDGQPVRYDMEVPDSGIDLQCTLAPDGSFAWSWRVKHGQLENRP
Method: Inhibition of auto-phosphorylation of recombinant human NF-kappaB-inducing kinase (NIK/MAP3K14) activity (AlphaScreen®)
NIK/MAP3K14 auto-phosphorylation activity was measured using the AlphaScreen® (αscreen) format (Perkin Elmer). All compounds tested were dissolved in dimethyl sulfoxide (DMSO) and further dilutions were made in assay buffer. The final DMSO concentration was 0.7% (v/v) in assays. The assay buffer was 50 mM Tris pH 7.5 containing 1 mM EGTA (ethylene glycol tetraacetic acid), 1 mM DTT (dithiothreitol), 0.1 mM Na3VO4, 5 mM MgCl2, and 0.01% Tween® 20. The assays were carried out in 384 well Proxiplates (Perkin Elmer). The incubations consisted of the compound, 5 μM Adenosine-5′-triphosphate (ATP), and 1 nM NIK/MAP3K14. Incubations were initiated by the addition of GST-tagged NIK/MAP3K14 enzyme, carried out for 2 h at 25° C. and terminated by addition of stop buffer containing anti-phospho-IKK Ser176/180 antibody. Protein A Acceptor and Glutathione-Donor beads were added before reading using an EnVision® Multilabel Plate Reader (Perkin Elmer). […] IC50's were determined by fitting a sigmoidal curve to % inhibition of control versus Log10 compound concentration.

| Compound | IC50 ([1]; Homo sapiens, L-363, 6 h) | IC50 [2] | IC50 [1] |
| --- | --- | --- | --- |
| [2H]C([2H])([2H])N1CCC(O)(C#Cc2cccc(-c3ncc4ccnc(N)c4n3)c2)C1=O (stereo in doubt) [Example 67, (S)-3-[2-[3-(8-Aminopyrido[3,4-d]pyrimidin-2-yl)phenyl]ethynyl]-3-hydroxy-1-(trideuteriomethyl)pyrrolidin-2-one] | 350 nM | 11 nM |  |
| CN1CC[C@@](O)(C#Cc2cccc(-c3ccc4cnnc(N)c4c3)c2)C1=O [Example 96, (R)-3-[2-[3-(4-Aminophthalazin-6-yl)phenyl]ethynyl]-3-hydroxy-1-methyl-pyrrolidin-2-one] | > 5000 nM | 29 nM |  |
| Nc1nccc2cnc(-c3cccc(C#C[C@]4(O)CCn5ccnc54)c3)nc12 [Example 17, (R)-7-[2-[3-(8-Aminopyrido[3,4-d]pyrimidin-2-yl)phenyl]ethynyl]-5,6-dihydropyrrolo[1,2-a]imidazol-7-ol] | 5.9 nM | ≤ 0.5 nM |  |
| CN1CC[C@@](O)(C#Cc2cccc(-c3nc(N4CCOCC4)c4ccnc(N)c4n3)c2)C1=O [Example 57, (R)-3-((3-(8-Amino-4-morpholinopyrido[3,4-d]pyrimidin-2-yl)phenyl)ethynyl)-3-hydroxy-1-methylpyrrolidin-2-one] | 35 nM | 1.3 nM |  |
| Cc1ccc(C#C[C@]2(O)CCc3cccnc32)cc1-c1nc2c(N)ncnc2s1 [Example 184, (R)-7-[2-[3-(7-Aminothiazolo[5,4-d]pyrimidin-2-yl)-4-methyl-phenyl]ethynyl]-5,6-dihydrocyclopenta[b]pyridin-7-ol] | 9.9 nM | ≤ 0.5 nM |  |
| Cc1nc(-c2cccc(C#C[C@]3(O)CCN(C)C3=O)c2)nc2c(N)ncnc12 [Example 4, (R)-3-((3-(8-Amino-4-methylpyrimido[5,4-d]pyrimidin-2-yl)phenyl)ethynyl)-3-hydroxy-1-methylpyrrolidin-2-one] | 5.4 nM | 0.8 nM |  |
| CN1CC[C@@](O)(C#Cc2cccc(-c3ccc4nccc(N)c4n3)c2)C1=O [Example 219, (R)-3-((3-(8-Amino-1,5-naphthyridin-2-yl)phenyl)ethynyl)-3-hydroxy-1-methylpyrrolidin-2-one] | > 5000 nM | 240 nM |  |
| CN1CC[C@](O)(C#Cc2cccc(-c3cc(Br)c4ncnc(N)c4n3)c2)C1=O [Example 254, (S)-3-((3-(4-Amino-8-bromopyrido[3,2-d]pyrimidin-6-yl)phenyl)ethynyl)-3-hydroxy-1-methylpyrrolidin-2-one] | 1330 nM | 230 nM |  |
| Cc1ccc(-c2ncc3ccnc(N)c3n2)cc1C#C[C@]1(O)CCN(C)C1=O [Example 40, (R)-3-((5-(8-Aminopyrido[3,4-d]pyrimidin-2-yl)-2-methylphenyl)ethynyl)-3-hydroxy-1-methylpyrrolidin-2-one] | 210 nM | 0.7 nM |  |
| Cc1nc(N)c2nc(-c3cccc(C#C[C@]4(O)C[C@@H](C)N(C)C4=O)c3)ccc2n1 [Example 265, (3R,5R)-3-((3-(4-Amino-2-methylpyrido[3,2-d]pyrimidin-6-yl)phenyl)ethynyl)-3-hydroxy-1,5-dimethylpyrrolidin-2-one] | 28 nM | 1.9 nM |  |
| Cc1nc(N)c2nc(-c3cccc(C#C[C@]4(O)C(=O)N(C)C[C@H]4C)c3)ccc2n1 (stereo in doubt) [Example 294, (3S,4R*)-3-((3-(4-Amino-2-methylpyrido[3,2-d]pyrimidin-6-yl)phenyl)ethynyl)-3-hydroxy-1,4-dimethylpyrrolidin-2-one] | 2460 nM | 390 nM |  |
| Cc1cc([C@](C)(O)C#Cc2ccc(C)c(-c3ncc4ccnc(N)c4n3)c2)no1 [Example 82, (R)-4-(3-(8-Aminopyrido[3,4-d]pyrimidin-2-yl)-4-methylphenyl)-2-(5-methylisoxazol-3-yl)but-3-yn-2-ol] | 2000 nM | 31 nM |  |
| [2H]C([2H])([2H])N1CC[C@@](O)(C#Cc2ccc(C)c(-c3ccc4ccnc(N)c4c3)c2)C1=O (single isomer, unassigned) [Example 71] |  | 4220 nM | > 5000 nM |
| COc1cc(-c2cccc(C#C[C@]3(O)CCN(C)C3=O)c2)cc2c(N)ncnc12 [Example 114, (R)-3-((3-(4-Amino-8-methoxyquinazolin-6-yl)phenyl)ethynyl)-3-hydroxy-1-methylpyrrolidin-2-one] | 120 nM | ≤ 0.5 nM |  |

Results, then the molecule that gave them:

| IC50 ([1]; Homo sapiens, L-363, 6 h) | IC50 [2] | IC50 [1] | Compound |
| --- | --- | --- | --- |
| 64 nM | 2.2 nM |  | CN1CC[C@@](O)(C#Cc2cccc(-c3cc(Oc4cnn(C(F)F)c4)c4ncnc(N)c4n3)c2)C1=O [Example 305, (R)-3-[2-[3-[4-Amino-8-[1-(difluoromethyl)pyrazol-4-yl]oxy-pyrido[3,2-d]pyrimidin-6-yl]phenyl]ethynyl]-3-hydroxy-1-methyl-pyrrolidin-2-one] |
| 7.7 nM | 0.9 nM |  | Cc1cc(-c2cccc(C#C[C@@]3(O)C(=O)N(C)[C@@H]4C[C@@H]43)c2)nc2c(N)ncnc12 [Example 281, (1R,4R,5S)-4-((3-(4-Amino-8-methylpyrido[3,2-d]pyrimidin-6-yl)phenyl)ethynyl)-4-hydroxy-2-methyl-2-azabicyclo[3.1.0]hexan-3-one] |
| 11 nM | 0.8 nM |  | CN1CC[C@@](O)(C#Cc2cccc(-c3cc(-c4ccco4)c4ncnc(N)c4n3)c2)C1=O [Example 312, (R)-3-((3-(4-Amino-8-(furan-2-yl)pyrido[3,2-d]pyrimidin-6-yl)phenyl)ethynyl)-3-hydroxy-1-methylpyrrolidin-2-one] |
| 17 nM | ≤ 0.5 nM |  | Nc1nccc2cnc(-c3cccc(C#C[C@]4(O)CCc5cccnc54)c3)nc12 [Example 45, (R)-7-[2-[3-(8-Aminopyrido[3,4-d]pyrimidin-2-yl)phenyl]ethynyl]-5,6-dihydrocyclopenta[b]pyridin-7-ol] |
| 28 nM | 0.7 nM |  | CN1CC[C@@](O)(C#Cc2cccc(-c3ncc4c(CC(C)(C)C)cnc(N)c4n3)c2)C1=O [Example 151, (R)-3-((3-(8-Amino-5-neopentylpyrido[3,4-d]pyrimidin-2-yl)phenyl)ethynyl)-3-hydroxy-1-methylpyrrolidin-2-one] |
| 540 nM | 23 nM |  | CCNc1ncnc2ccc(-c3cccc(C#C[C@]4(O)CCN(C)C4=O)c3)nc12 [Example 227, (R)-3-((3-(4-(Ethylamino)pyrido[3,2-d]pyrimidin-6-yl)phenyl)ethynyl)-3-hydroxy-1-methylpyrrolidin-2-one] |
| > 5000 nM | > 5000 nM |  | Cc1ccc(C#C[C@]2(O)CCN(CC(F)(F)F)C2=O)cc1-c1ccc2ccnc(N)c2c1 [Example 77, (R)-3-[2-[3-(1-Amino-7-isoquinolyl)-4-methyl-phenyl]ethynyl]-3-hydroxy-1-(2,2,2-trifluoroethyl)pyrrolidin-2-one] |
| > 5000 nM | 830 nM |  | CN1CC[C@@](O)(C#Cc2cccc(-c3ccc4[nH]nc(N)c4c3)c2)C1=O [Example 174, (R)-3-[2-[3-(3-Amino-1H-indazol-5-yl)phenyl]ethynyl]-3-hydroxy-1-methyl-pyrrolidin-2-one] |
| 620 nM | 4.5 nM |  | Nc1nccc2cnc(-c3cccc(C#CC4(O)CCCC4)c3)nc12 [Example 33, 1-[2-[3-(8-Aminopyrido[3,4-d]pyrimidin-2-yl)phenyl]ethynyl]cyclopentanol] |
